Data published in ChEMBL document CHEMBL1201862, “PubChem BioAssay data set” (2004).
Active and inactive are the calls of the source.

Columns and labels:
[1] = molecular target: T1, High affinity choline transporter 1 (Homo sapiens, UniProt Q9GZV3); assay: CHT inhibitors, dose response, cell-based, 5-point CRC, membrane potential dye (AID 504840); format: functional
T1 sequence (Q9GZV3 whole entry): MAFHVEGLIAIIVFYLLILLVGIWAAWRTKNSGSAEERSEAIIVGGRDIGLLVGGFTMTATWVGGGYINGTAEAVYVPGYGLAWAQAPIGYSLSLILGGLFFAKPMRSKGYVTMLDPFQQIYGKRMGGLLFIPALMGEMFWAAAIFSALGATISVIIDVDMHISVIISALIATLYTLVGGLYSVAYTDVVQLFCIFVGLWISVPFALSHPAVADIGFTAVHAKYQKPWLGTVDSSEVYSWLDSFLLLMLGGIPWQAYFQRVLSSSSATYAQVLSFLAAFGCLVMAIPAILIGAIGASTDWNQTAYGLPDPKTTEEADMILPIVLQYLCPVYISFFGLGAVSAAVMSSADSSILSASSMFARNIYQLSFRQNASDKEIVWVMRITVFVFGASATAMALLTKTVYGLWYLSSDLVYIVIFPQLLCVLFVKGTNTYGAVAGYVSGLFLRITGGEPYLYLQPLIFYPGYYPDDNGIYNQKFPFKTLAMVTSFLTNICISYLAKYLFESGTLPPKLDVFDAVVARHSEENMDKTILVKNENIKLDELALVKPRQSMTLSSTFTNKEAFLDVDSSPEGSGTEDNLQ

[2] = molecular target: T1, High affinity choline transporter 1; assay: CHT inhibitors, dose response, cell-based, 10-point CRC, membrane potential dye (AID 588401); format: functional;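 further: membrane potential dye fluorescence of choline-evoked depolarization via CHT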
[3] = molecular target: T2, Apoptotic protease-activating factor 1 (Homo sapiens, UniProt O14727); assay: SAR analysis of small molecule Activators of Apaf-1 in a Fluorescent assay.; format: functional; settings: read-out: EC50_Mean;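 further: caspase-3 cleavage of fluorogenic Rh110 DEVD substrate downstream of apoptosome activation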
T2 sequence (O14727 whole entry): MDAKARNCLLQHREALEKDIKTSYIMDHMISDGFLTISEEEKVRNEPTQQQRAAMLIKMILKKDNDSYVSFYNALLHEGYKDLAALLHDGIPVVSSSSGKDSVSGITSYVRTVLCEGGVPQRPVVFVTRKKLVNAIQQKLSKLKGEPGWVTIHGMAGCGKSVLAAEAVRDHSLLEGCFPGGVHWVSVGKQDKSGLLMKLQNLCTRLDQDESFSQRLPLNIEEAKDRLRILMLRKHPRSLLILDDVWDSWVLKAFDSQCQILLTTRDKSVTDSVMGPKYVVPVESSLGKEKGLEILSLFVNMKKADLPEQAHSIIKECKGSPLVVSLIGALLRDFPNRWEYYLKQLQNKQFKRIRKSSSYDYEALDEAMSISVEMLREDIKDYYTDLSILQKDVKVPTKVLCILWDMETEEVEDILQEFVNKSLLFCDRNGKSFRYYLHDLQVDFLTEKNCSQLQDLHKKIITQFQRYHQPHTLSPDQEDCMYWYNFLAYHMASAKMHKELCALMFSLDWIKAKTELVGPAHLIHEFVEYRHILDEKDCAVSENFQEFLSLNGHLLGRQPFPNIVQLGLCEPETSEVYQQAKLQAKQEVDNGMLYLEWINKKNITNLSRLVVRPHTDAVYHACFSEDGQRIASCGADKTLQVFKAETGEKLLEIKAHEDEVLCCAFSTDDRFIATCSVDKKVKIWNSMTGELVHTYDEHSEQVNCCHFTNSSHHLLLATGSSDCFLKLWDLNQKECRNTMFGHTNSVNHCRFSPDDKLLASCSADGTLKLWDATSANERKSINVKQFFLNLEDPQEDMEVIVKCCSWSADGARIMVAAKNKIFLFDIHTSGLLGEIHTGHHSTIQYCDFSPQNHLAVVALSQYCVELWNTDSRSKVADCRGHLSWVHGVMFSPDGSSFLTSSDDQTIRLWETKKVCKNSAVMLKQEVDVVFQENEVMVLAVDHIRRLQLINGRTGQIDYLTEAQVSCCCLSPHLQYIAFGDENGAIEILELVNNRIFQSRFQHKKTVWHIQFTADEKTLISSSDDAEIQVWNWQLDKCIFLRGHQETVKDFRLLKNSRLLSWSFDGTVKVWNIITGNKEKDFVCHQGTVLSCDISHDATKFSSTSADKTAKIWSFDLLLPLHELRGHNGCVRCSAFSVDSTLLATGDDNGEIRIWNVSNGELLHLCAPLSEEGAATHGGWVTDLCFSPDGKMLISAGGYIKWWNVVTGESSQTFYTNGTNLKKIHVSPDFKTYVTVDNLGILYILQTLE

[4] = molecular target: T3, RNA-binding protein pos-1 (Caenorhabditis elegans, UniProt G5EF15); assay: inhibitors of POS-1/mex-3 RNA binding, dose response, biochemical, fluorescence polarization (AID 1964);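 further: purified POS-1 fused to maltose binding protein made in E. coli; potency of compounds blocking POS-1 binding to fluorescent RNA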
T3 sequence (G5EF15 whole entry): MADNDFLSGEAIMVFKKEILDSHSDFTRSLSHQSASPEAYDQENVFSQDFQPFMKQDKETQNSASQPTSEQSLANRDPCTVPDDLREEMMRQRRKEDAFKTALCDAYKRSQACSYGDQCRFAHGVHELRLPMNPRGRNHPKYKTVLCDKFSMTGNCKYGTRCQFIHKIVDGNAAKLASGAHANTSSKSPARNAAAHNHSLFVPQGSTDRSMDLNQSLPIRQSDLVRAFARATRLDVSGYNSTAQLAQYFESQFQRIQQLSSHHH

[5] = molecular target: T4, Zinc finger protein mex-5 (Caenorhabditis elegans, UniProt Q9XUB2); assay: MEX-5/TCR-2 RNA interaction inhibitors, dose response, biochemical, C. elegans, fluorescence polarization (AID 1960)
T4 sequence (Q9XUB2 whole entry): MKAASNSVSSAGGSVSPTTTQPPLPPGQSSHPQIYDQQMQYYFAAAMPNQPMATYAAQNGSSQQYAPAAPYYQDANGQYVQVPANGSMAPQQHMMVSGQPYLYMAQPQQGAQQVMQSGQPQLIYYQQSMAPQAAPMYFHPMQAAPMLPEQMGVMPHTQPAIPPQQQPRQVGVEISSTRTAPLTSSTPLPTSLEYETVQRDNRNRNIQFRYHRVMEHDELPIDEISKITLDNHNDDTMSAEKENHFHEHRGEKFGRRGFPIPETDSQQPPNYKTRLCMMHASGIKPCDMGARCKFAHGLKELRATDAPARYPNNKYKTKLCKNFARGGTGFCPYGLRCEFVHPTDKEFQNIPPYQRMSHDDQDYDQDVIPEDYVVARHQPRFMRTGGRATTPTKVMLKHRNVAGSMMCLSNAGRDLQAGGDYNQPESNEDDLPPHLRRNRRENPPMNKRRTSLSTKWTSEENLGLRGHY

[6] = molecular target: Benomyl/methotrexate resistance protein (Candida albicans, UniProt P28873); assay: CaMdr1 efflux pump inhibitor potency, dose response, singleplex, Cherry Pick1 hits (AID 588608); format: functional
[7] = molecular target: Multidrug resistance protein CDR1 (Candida albicans, UniProt P43071); assay: CaCDR1 efflux pump inhibitors in yeast, dose response, S. cerevisiae AD1-8u, singleplex, Cherry Pick1 hits (AID 588606); format: functional
[8] = molecular target: T5, Multidrug resistance protein CDR2 (Candida albicans (strain SC5314 / ATCC MYA-2876) (Yeast), UniProt P78595); assay: CaCDR2 efflux pump inhibitors in yeast, dose response, S. cerevisiae AD1-8u, singleplex, Cherry Pick1 hits (AID 588604); format: functional
T5 sequence (P78595 whole entry): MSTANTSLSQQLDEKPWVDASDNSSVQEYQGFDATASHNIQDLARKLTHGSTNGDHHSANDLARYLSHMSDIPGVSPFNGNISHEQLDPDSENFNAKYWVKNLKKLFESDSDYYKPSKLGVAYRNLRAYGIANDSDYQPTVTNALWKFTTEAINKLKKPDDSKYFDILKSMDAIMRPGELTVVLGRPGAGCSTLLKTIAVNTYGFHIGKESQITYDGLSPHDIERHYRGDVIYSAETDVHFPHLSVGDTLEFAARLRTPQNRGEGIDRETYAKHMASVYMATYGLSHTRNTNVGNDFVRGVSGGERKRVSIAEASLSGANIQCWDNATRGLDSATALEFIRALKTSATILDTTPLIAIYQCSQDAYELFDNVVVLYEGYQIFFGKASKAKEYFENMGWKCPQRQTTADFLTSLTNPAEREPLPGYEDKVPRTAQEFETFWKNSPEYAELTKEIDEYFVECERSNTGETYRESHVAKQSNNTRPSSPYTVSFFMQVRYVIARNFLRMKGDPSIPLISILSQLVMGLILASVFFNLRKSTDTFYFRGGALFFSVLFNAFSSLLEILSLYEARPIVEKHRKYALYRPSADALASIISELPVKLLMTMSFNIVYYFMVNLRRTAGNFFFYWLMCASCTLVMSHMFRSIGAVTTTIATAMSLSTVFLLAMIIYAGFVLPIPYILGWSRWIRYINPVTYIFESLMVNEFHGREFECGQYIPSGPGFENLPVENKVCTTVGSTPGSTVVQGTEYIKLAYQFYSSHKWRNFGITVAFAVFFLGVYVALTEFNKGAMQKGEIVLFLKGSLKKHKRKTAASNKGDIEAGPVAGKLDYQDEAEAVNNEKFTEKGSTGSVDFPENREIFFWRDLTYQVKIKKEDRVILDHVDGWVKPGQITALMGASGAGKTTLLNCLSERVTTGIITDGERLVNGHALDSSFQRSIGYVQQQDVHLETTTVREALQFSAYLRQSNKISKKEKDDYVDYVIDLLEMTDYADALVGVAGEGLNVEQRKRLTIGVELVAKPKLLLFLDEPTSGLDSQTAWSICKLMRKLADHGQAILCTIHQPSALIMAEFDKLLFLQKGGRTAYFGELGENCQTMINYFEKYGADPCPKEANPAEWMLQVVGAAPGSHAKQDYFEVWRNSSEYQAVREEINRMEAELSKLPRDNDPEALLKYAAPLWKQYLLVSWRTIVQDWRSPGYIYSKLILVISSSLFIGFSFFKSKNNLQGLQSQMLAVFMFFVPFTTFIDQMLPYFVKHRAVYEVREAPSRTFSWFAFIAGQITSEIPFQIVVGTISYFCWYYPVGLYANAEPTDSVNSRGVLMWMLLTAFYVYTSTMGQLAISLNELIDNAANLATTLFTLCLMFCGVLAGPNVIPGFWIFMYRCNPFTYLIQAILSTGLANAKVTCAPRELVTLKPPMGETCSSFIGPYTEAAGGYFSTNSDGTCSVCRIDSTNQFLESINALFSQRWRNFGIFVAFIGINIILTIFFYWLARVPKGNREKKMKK

Genome polyprotein = Genome polyprotein (dengue virus type 2, UniProt P29990); assay: Dengue-2 NS5 methyltransferase inhibitors, primary screen, biochemical, confirmation dose response (AID 588689); format: functional
[9] = molecular target: DNA (cytosine-5)-methyltransferase 1 (Homo sapiens, UniProt P26358); assay: DNMT1 methyltransferase inhibitors, confirmation, biochemical, fluorescent molecular beacon (AID 602386); format: functional
[10] = molecular target: 26S proteasome non-ATPase regulatory subunit 14 (Homo sapiens, UniProt O00487); assay: inhibition of proteasome subunit RPN11 – biochemical, fluorescence polarization, uHTS hits, confirmation (AID 602368); format: functional
[11] = molecular target: 72 kDa type IV collagenase (Homo sapiens, UniProt P08253); assay: Dose Response validation of uHTS RPN11 inhibitor hits using a MMP-2 Fluorescence assay.; format: functional
Prothrombin = Prothrombin (Bos taurus, UniProt P00735); assay: thrombin inhibition, dose response, biochemical, fluorescence polarization, uHTS hits (AID 602369); format: functional
[12] = molecular target: T6, Rac GTPase-activating protein 1 (Homo sapiens, UniProt Q9H0H5); assay: MgcRacGAP GTPase-activating activity inhibitors, confirmation, biochemical, ADP Hunter fluorescence, primary and confirmatory (AID 624330); format: functional
T6 sequence (Q9H0H5 whole entry): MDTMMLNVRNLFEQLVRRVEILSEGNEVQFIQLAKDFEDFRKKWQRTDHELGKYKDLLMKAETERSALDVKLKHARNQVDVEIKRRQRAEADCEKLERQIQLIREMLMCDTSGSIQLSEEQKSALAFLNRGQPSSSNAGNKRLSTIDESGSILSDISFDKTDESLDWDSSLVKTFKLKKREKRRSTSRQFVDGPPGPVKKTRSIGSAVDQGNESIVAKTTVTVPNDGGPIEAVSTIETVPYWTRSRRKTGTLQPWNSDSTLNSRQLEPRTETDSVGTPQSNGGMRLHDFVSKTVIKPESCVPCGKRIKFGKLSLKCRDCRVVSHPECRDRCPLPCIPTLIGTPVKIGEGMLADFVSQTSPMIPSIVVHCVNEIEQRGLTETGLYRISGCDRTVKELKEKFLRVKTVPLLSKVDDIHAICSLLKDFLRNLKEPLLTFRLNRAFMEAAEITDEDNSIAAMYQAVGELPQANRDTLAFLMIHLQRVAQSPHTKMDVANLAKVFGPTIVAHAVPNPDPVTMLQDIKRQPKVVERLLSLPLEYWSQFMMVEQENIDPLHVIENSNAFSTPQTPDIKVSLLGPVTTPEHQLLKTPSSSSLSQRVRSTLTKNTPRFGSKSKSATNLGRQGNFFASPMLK

Sequence of Benomyl/methotrexate resistance protein (P28873 whole entry): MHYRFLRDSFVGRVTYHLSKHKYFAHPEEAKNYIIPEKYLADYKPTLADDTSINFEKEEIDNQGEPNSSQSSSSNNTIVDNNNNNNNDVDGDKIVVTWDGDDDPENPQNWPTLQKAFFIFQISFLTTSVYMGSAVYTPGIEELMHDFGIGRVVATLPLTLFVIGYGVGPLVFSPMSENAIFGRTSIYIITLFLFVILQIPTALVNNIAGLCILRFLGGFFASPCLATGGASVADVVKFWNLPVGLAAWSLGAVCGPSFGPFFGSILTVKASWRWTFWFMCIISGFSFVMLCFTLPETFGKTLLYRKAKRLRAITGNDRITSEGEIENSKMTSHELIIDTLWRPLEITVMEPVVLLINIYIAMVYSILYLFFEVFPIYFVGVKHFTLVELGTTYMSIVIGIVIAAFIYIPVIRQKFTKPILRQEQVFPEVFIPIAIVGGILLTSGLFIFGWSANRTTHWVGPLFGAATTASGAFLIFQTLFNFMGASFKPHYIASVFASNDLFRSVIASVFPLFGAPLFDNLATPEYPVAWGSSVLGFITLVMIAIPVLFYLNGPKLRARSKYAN
Sequence of DNA (cytosine-5)-methyltransferase 1 (P26358 whole entry): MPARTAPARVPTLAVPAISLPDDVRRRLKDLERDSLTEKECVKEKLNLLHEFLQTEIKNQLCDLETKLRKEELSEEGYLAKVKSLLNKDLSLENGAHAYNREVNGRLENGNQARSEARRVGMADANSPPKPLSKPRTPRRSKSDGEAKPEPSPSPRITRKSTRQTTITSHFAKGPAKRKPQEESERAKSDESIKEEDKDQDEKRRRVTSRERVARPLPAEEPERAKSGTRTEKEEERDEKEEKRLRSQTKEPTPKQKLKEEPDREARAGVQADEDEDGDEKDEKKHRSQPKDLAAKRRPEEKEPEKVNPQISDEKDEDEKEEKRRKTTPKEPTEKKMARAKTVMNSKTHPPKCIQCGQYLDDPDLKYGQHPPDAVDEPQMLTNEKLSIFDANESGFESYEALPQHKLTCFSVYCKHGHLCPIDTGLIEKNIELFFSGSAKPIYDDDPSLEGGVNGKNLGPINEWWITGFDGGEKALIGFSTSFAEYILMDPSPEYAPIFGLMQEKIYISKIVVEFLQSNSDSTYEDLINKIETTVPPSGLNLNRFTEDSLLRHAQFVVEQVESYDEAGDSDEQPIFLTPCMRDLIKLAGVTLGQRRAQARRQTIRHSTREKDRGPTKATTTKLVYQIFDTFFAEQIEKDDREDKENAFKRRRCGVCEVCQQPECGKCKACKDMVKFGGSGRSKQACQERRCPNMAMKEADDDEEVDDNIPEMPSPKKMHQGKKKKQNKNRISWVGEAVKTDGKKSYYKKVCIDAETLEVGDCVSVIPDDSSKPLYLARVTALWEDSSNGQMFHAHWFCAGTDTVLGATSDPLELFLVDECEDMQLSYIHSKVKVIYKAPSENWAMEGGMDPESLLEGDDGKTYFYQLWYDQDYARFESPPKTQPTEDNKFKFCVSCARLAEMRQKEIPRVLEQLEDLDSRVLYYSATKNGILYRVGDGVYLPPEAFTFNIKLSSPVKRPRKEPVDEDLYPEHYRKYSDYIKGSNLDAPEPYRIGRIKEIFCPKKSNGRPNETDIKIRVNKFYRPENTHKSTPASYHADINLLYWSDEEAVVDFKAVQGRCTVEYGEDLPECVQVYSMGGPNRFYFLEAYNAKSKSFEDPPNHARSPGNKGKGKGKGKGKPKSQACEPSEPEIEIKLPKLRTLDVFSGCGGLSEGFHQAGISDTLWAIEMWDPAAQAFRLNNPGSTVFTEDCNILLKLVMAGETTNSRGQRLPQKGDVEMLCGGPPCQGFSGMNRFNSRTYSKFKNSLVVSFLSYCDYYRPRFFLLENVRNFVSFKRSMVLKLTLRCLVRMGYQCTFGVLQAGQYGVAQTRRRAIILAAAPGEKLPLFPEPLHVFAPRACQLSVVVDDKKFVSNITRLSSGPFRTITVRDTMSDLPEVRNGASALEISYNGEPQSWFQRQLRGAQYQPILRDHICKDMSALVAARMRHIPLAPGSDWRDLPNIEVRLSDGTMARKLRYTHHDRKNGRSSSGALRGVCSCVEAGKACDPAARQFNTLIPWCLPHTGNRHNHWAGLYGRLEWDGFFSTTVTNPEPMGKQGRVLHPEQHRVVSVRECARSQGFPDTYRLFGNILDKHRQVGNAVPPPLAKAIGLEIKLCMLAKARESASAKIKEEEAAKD
Sequence of Multidrug resistance protein CDR1 (P43071 whole entry, looked up): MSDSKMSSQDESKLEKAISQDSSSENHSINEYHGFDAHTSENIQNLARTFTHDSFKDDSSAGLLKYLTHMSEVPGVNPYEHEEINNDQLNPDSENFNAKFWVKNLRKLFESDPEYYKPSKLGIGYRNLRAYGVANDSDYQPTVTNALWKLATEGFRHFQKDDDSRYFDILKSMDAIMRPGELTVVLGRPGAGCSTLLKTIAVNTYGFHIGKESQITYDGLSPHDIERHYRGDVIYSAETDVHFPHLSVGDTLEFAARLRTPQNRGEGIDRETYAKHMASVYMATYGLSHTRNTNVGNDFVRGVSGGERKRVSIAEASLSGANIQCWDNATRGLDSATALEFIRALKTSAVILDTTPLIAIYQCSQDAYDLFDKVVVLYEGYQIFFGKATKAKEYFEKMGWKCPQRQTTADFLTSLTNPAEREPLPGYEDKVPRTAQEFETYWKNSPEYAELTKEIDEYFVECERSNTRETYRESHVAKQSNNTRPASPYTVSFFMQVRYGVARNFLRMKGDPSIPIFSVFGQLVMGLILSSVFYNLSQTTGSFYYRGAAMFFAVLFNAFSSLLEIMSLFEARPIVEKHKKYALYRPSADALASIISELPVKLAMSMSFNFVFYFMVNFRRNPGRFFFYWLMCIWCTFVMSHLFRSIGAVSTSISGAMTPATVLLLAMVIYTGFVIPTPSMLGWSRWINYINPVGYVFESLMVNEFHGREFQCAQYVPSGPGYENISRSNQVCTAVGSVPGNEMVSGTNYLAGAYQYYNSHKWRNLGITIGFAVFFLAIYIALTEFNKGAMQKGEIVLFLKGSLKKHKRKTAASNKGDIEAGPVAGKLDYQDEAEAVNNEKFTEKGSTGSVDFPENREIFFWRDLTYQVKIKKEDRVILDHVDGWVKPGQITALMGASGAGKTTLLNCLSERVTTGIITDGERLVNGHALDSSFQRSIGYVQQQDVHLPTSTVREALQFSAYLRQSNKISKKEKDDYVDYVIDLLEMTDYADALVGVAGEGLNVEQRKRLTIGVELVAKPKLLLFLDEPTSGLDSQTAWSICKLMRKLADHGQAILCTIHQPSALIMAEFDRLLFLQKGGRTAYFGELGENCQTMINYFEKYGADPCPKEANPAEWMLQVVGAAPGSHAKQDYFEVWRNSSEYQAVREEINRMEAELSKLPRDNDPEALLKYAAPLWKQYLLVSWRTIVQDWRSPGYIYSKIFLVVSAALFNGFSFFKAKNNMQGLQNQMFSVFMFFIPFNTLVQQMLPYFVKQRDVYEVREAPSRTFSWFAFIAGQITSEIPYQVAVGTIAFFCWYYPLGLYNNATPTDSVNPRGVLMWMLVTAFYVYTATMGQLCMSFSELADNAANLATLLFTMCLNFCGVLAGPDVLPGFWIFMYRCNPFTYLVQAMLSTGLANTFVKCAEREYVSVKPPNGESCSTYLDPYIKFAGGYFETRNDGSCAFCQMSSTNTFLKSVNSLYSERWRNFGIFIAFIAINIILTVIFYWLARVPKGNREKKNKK
Sequence of Genome polyprotein (P29990 2492-3391 limits assumed): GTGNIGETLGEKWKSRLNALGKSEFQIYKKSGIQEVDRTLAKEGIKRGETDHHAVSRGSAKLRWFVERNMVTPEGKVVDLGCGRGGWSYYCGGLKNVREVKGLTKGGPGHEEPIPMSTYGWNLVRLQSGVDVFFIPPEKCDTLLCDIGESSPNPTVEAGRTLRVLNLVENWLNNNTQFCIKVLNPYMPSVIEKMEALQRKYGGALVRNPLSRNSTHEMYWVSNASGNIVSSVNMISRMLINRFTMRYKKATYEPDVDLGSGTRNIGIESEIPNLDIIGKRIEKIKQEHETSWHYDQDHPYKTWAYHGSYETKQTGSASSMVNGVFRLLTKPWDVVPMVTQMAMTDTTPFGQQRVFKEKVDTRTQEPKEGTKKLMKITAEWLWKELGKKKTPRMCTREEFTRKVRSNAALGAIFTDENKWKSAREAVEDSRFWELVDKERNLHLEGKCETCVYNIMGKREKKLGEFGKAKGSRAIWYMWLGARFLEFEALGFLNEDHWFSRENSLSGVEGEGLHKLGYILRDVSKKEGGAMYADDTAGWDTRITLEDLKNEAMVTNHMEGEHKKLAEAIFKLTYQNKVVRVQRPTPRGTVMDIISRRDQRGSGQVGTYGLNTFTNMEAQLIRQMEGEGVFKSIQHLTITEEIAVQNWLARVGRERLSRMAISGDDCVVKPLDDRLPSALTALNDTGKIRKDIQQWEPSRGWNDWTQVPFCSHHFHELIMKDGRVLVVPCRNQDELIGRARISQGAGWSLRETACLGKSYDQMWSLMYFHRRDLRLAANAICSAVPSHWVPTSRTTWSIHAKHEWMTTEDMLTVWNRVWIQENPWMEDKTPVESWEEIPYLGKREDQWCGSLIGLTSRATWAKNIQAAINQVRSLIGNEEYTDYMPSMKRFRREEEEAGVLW
Sequence of 26S proteasome non-ATPase regulatory subunit 14 (O00487 whole entry): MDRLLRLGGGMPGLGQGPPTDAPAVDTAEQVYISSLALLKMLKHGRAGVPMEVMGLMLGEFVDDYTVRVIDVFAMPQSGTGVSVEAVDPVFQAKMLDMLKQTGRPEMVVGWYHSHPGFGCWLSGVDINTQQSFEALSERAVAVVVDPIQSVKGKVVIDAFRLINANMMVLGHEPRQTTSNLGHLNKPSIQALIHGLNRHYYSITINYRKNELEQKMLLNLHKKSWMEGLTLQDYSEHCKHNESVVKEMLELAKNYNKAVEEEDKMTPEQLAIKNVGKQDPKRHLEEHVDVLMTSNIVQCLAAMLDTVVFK

Q: What does the source list for COc1ccc(C(=O)NCc2cnn(C)c2C)cc1OC1CCN(C(C)C)CC1?
A: IC50 [1]: 4.47 µM (active); IC50 [2]: 2.38 µM (active)

Q: For CCc1cc(C(=O)Cc2ccc(F)cc2)c(O)cc1O, which IC50 [1] is on record?
A: The IC50 was 8.38 µM (active).

Q: And the IC50 [2]?
A: The IC50 was 4.47 µM (active).

Q: How did the EC50 [3] turn out when COc1ccc(Cl)cc1NC(=O)CCS(=O)(=O)c1cc2c(cc1Br)CCN2C(C)=O was run?
A: The EC50 was > 100 µM (inactive).

Q: How did the EC50 [4] turn out when O=C(O)CCN1C(=O)/C(=C/c2ccc(-c3nc4ccccc4s3)o2)SC1=S was run?
A: Its EC50 is 32.3 µM (active).

Q: What about the EC50 [5] of the same compound?
A: The EC50 was 21.8 µM (active).

Q: And the EC50 [6]?
A: Its EC50 is 0.102 µM (active).

Q: What about the EC50 [7] of the same compound?
A: The EC50 was 11.2 µM (active).

Q: What about the EC50 [8] of the same compound?
A: Its EC50 is 12.1 µM (active).

Q: And the IC50 (Genome polyprotein)?
A: The IC50 was > 100 µM (active).

Q: What about the IC50 [9] of the same compound?
A: The IC50 was 4.66 µM (active).

Q: And the IC50 [10]?
A: Its IC50 is 2.93 µM (active).

Q: And the IC50 [11]?
A: Its IC50 is > 100 µM (inactive).

Q: And the IC50 (Prothrombin)?
A: The IC50 was 5.11 µM (active).

Q: What about the IC50 [12] of the same compound?
A: The IC50 was 30.6 µM (active).
